How the values were obtained:
[1] = system: P. falciparum; experiment: EC50 listed in S2 Table Metabolomics (used to set the concentration tested); type: cell-based; details: Plasmodium falciparum; EC50 used for Factor_XEC50 in metabolomics; read-out: EC50_nM
[2] = system: P. falciparum 3D7 trophozoites; experiment: Metabolomic fingerprint profiling LC-MS; type: cell-based, Plasmodium falciparum; set-up: UDP-D-glucose / ADP-D-glucose: unit not given here; details: for Acetyllysine / N-acetyl-L-ornithine / N-carbamoyl-L-aspartate / NADPH / dAMP / dCMP / dTDP / dTMP / dTTP / dihydroorotate / orotate / DLH / DLS/SDL/SID / PD / PEE / PVNF / 3-phosphoglycerate / ADP-D-glucose / ATP / CDP / D-sedoheptulose-1/7-phosphate / FAD / GMP / NAD+ / NADP+ / Octoluse Bisphosphate / Pyroglutamic acid / UDP-D-glucose / UDP-D-glucuronate / UDP-N-acetyl-glucosamine / UDP / UMP / UTP / a-ketoglutarate / citrate/isocitrate / cytidine / dATP / dGMP/AMP / fumarate / glucose-1/6-phosphate / glycerate / guanine / guanosine / hypoxanthine / indole / inosine / nicotinate / ornithine / phosphoenolpyruvate / pyruvate / ribose-phosphate / sarcosine/alanine / sn-glycerol-3-phosphate / succinate/methylmalonic acid / uridine / xanthosine: S2 Table Metabolomics; for Acetyllysine: metabolite Acetyllysine; for N-acetyl-L-ornithine: metabolite N-acetyl-L-ornithine; for N-carbamoyl-L-aspartate: metabolite N-carbamoyl-L-aspartate; for NADPH: metabolite NADPH; for dAMP: metabolite dAMP; for dCMP: metabolite dCMP; for dTDP: metabolite dTDP; for dTMP: metabolite dTMP; for dTTP: metabolite dTTP; for dihydroorotate: metabolite dihydroorotate; for orotate: metabolite orotate; for DLH: peptide DLH; for DLS/SDL/SID: peptide DLS/SDL/SID; for PD: peptide PD; for PEE: peptide PEE; for PVNF: peptide PVNF; for 3-phosphoglycerate: metabolite 3-phosphoglycerate; for ADP-D-glucose: metabolite ADP-D-glucose; for ATP: metabolite ATP; for CDP: metabolite CDP; for CDP / D-sedoheptulose-1/7-phosphate / GMP / Octoluse Bisphosphate / UDP / UMP / UTP / citrate/isocitrate / dGMP/AMP / fumarate / glucose-1/6-phosphate / glycerate / guanine / guanosine / inosine / pyruvate / sarcosine/alanine / succinate/methylmalonic acid / uridine / xanthosine: change in metabolite level after compound treatment; for D-sedoheptulose-1/7-phosphate: metabolite D-sedoheptulose-1/7-phosphate; for FAD: metabolite FAD; for GMP: metabolite GMP; for NAD+: metabolite NAD+; for NADP+: metabolite NADP+; for Octoluse Bisphosphate: metabolite Octoluse Bisphosphate; for Pyroglutamic acid: metabolite Pyroglutamic acid; for UDP-D-glucose: metabolite UDP-D-glucose; for UDP-D-glucuronate: metabolite UDP-D-glucuronate; for UDP-N-acetyl-glucosamine: metabolite UDP-N-acetyl-glucosamine; for UDP: metabolite UDP; for UMP: metabolite UMP; for UTP: metabolite UTP; for a-ketoglutarate: metabolite a-ketoglutarate; for citrate/isocitrate: metabolite citrate/isocitrate; for cytidine: metabolite cytidine; for dATP: metabolite dATP; for dGMP/AMP: metabolite dGMP/AMP; for fumarate: metabolite fumarate; for glucose-1/6-phosphate: metabolite glucose-1/6-phosphate; for glycerate: metabolite glycerate; for guanine: metabolite guanine; for guanosine: metabolite guanosine; for hypoxanthine: metabolite hypoxanthine; for indole: metabolite indole; for inosine: metabolite inosine; for 2_3-Diphosphoglyceric acid / 4-phosphopantothenate / 6-phospho-D-gluconate / FMN / IMP / Pyrophosphate / Sedoheptoluse bisphosphate / cyclic-AMP / glutathione disulfide / lactate / myo-inositol: metabolite level change after treatment; for nicotinate: metabolite nicotinate; for ornithine: metabolite ornithine; for phosphoenolpyruvate: metabolite phosphoenolpyruvate; for pyruvate: metabolite pyruvate; for ribose-phosphate: metabolite ribose-phosphate; for sarcosine/alanine: metabolite sarcosine/alanine; for sn-glycerol-3-phosphate: metabolite sn-glycerol-3-phosphate; for succinate/methylmalonic acid: metabolite succinate/methylmalonic acid; for uridine: metabolite uridine; for xanthosine: metabolite xanthosine

Cc1ccc(Nc2nc(NCCO)c3ccccc3n2)cc1C [MMV001038]
EC50 [1]: 428 nM | Acetyllysine [2]: -1.736 | N-acetyl-L-ornithine [2]: -0.8338 | N-carbamoyl-L-aspartate [2]: 2.2667 | NADPH [2]: 1.133 | dAMP [2]: 0.6638 | dCMP [2]: -0.6324 | dTDP [2]: 0.5044 | dTMP [2]: 1.028 | dTTP [2]: -1.24 | dihydroorotate [2]: 2.22 | orotate [2]: -0.01519 | DLH [2]: -3.038 | DLS/SDL/SID [2]: -1.162 | PD [2]: -0.2116 | PEE [2]: -5.814 | PVNF [2]: -1.547 | 3-phosphoglycerate [2]: 0.5584 | ADP-D-glucose [2]: 0.41 | ATP [2]: -0.8212 | CDP [2]: -0.1382 | D-sedoheptulose-1/7-phosphate [2]: 0.3347 | FAD [2]: 0.9327 | GMP [2]: 0.5554 | NAD+ [2]: 0.6377 | NADP+ [2]: 1.018 | Octoluse Bisphosphate [2]: 0.3963 | Pyroglutamic acid [2]: -0.8623 | UDP-D-glucose [2]: 0.149 | UDP-D-glucuronate [2]: 0.1087 | UDP-N-acetyl-glucosamine [2]: 0.4035 | UDP [2]: 0.7043 | UMP [2]: -0.2063 | UTP [2]: -0.5445 | a-ketoglutarate [2]: -0.3007 | citrate/isocitrate [2]: -0.768 | cytidine [2]: 0.3191 | dATP [2]: -1.248 | dGMP/AMP [2]: 0.4665 | fumarate [2]: -0.3966 | glucose-1/6-phosphate [2]: 3.518 | glycerate [2]: 0.8355 | guanine [2]: -0.1055 | guanosine [2]: -0.4181 | hypoxanthine [2]: 0.2457 | indole [2]: -0.2391 | inosine [2]: 0.4136 | 2_3-Diphosphoglyceric acid [2]: 0.3981 | 4-phosphopantothenate [2]: 0.7744 | 6-phospho-D-gluconate [2]: -0.4519 | FMN [2]: 0.7846 | IMP [2]: 0.7773 | Pyrophosphate [2]: -0.6549 | Sedoheptoluse bisphosphate [2]: 0.6681 | cyclic-AMP [2]: 0.8549 | glutathione disulfide [2]: 0.7162 | lactate [2]: 1.5312 | myo-inositol [2]: 3.154 | nicotinate [2]: -0.4211 | ornithine [2]: -0.2093 | phosphoenolpyruvate [2]: 0.02444 | pyruvate [2]: 0.2652 | ribose-phosphate [2]: 0.4889 | sarcosine/alanine [2]: -0.4284 | sn-glycerol-3-phosphate [2]: 0.01718 | succinate/methylmalonic acid [2]: -0.401 | uridine [2]: 0.3457 | xanthosine [2]: -1.776

c1ccc2cc3c(Nc4ccc(N5CCOCC5)cc4)ccnc3cc2c1 [MMV006861]
EC50 [1]: 251 nM | Acetyllysine [2]: 0.001155 | N-acetyl-L-ornithine [2]: 0.1202 | N-carbamoyl-L-aspartate [2]: 0.09461 | NADPH [2]: 0.6132 | dAMP [2]: -0.1929 | dCMP [2]: 0.2768 | dTDP [2]: 0.03656 | dTMP [2]: 0.1106 | dTTP [2]: -0.07535 | dihydroorotate [2]: 0.311 | orotate [2]: -0.21 | DLH [2]: 0.09611 | DLS/SDL/SID [2]: 0.08895 | PD [2]: 0.008487 | PEE [2]: 0.1992 | PVNF [2]: -0.07307 | 3-phosphoglycerate [2]: -0.2621 | ADP-D-glucose [2]: 0.04555 | ATP [2]: 0.1894 | CDP [2]: 0.09878 | D-sedoheptulose-1/7-phosphate [2]: 0.1691 | FAD [2]: 0.1498 | GMP [2]: 0.6017 | NAD+ [2]: 0.04038 | NADP+ [2]: 0.01746 | Octoluse Bisphosphate [2]: 0.06917 | Pyroglutamic acid [2]: 0.7013 | UDP-D-glucose [2]: -0.003086 | UDP-D-glucuronate [2]: -0.03493 | UDP-N-acetyl-glucosamine [2]: 0.008052 | UDP [2]: 0.1461 | UMP [2]: -0.13 | UTP [2]: -0.06454 | a-ketoglutarate [2]: -0.4694 | citrate/isocitrate [2]: -0.2815 | cytidine [2]: -0.002725 | dATP [2]: -0.03123 | dGMP/AMP [2]: -0.0595 | fumarate [2]: -0.1611 | glucose-1/6-phosphate [2]: 0.03738 | glycerate [2]: -0.6693 | guanine [2]: -0.08848 | guanosine [2]: -0.211 | hypoxanthine [2]: -0.05987 | indole [2]: -0.08261 | inosine [2]: -0.2117 | 2_3-Diphosphoglyceric acid [2]: 0.06563 | 4-phosphopantothenate [2]: -0.011 | 6-phospho-D-gluconate [2]: -0.02789 | FMN [2]: 0.1069 | IMP [2]: -0.3519 | Pyrophosphate [2]: 0.04971 | Sedoheptoluse bisphosphate [2]: 0.0295 | cyclic-AMP [2]: 0.009655 | glutathione disulfide [2]: -0.09687 | lactate [2]: -0.2479 | myo-inositol [2]: -0.35 | nicotinate [2]: -0.2896 | ornithine [2]: -0.2133 | phosphoenolpyruvate [2]: -0.1566 | pyruvate [2]: -0.275 | ribose-phosphate [2]: -0.01288 | sarcosine/alanine [2]: -0.00437 | sn-glycerol-3-phosphate [2]: -0.1431 | succinate/methylmalonic acid [2]: -0.003665 | uridine [2]: -0.2532 | xanthosine [2]: -0.2406
